Data taken from ChEMBL document CHEMBL2021894, “The Discovery of VX-745: A Novel and Selective p38α Kinase Inhibitor” (ACS Med Chem Lett, 2011).

Tests used:
[1] = Plasma protein binding in dog; type: ADME, cell-free, Canis lupus familiaris; conditions: read-out: PPB (converted)
[2] = biological target: Serine/threonine-protein kinase PAK 2 (Homo sapiens) (UniProt Q13177); conditions: 2 uM
Description: Inhibition of PAK2 at 2 uM

[3] = Inhibition of Gsk3 by filter binding assay
[4] = biological target: Serine/threonine-protein kinase 3 (Homo sapiens) (UniProt Q13188); conditions: 2 uM
Description: Inhibition of Mst2 at 2 uM

[5] = biological target: Mitogen-activated protein kinase 8 (Homo sapiens) (UniProt P45983); assay: Inhibition of JNK1 at 2 uM
[6] = biological target: Ephrin type-B receptor 4 (Homo sapiens) (UniProt P54760); conditions: 2 uM
Description: Inhibition of EphB4 at 2 uM

[7] = Half life in BALB/c mouse at 2 mg/kg, iv; type: ADME, organism-based; design: dose 2 mg/kg, route intravenous; conditions: in vivo
[8] = biological target: Insulin receptor (Homo sapiens) (UniProt P06213); conditions: 2 uM
Description: Inhibition of IRTK at 2 uM

[9] = Inhibition of PKA by filter binding assay
[10] = Cmax in Sprague-Dawley rat at 43 mg/kg, po; type: ADME, organism-based; design: dose 43 mg/kg, route oral; conditions: in vivo
[11] = Oral bioavailability in BALB/c mouse at 40 mg/kg; type: ADME, organism-based; conditions: in vivo
[12] = biological target: Protein kinase C beta type (Homo sapiens) (UniProt P05771); assay: Inhibition of PKCb2 at 2 uM
[13] = biological target: Epidermal growth factor receptor (Homo sapiens) (UniProt P00533); conditions: 2 uM
Description: Inhibition of EGFR at 2 uM

[14] = biological target: Rho-associated protein kinase 2 (Homo sapiens) (UniProt O75116); assay: Inhibition of ROCK2 at 2 uM
[15] = biological target: Dual specificity mitogen-activated protein kinase kinase 6 (Homo sapiens) (UniProt P52564); assay: Inhibition of MKK6 at 2 uM
[16] = biological target: Mitogen-activated protein kinase 3 (Homo sapiens) (UniProt P27361); conditions: 2 uM
Description: Inhibition of ERK1 at 2 uM

[17] = Half life in Sprague-Dawley rat at 4.8 mg/kg, iv; type: ADME, organism-based; design: dose 4.8 mg/kg, route intravenous; conditions: in vivo
[18] = biological target: Dual specificity mitogen-activated protein kinase kinase 1 (Homo sapiens) (UniProt Q02750); assay: Inhibition of Mek1 at 2 uM
[19] = AUC in BALB/c mouse at 2 mg/kg, iv; type: ADME, organism-based; design: dose 2 mg/kg, route intravenous; conditions: plasma
[20] = biological target: Protein kinase C iota type (Homo sapiens) (UniProt P41743); conditions: 2 uM
Description: Inhibition of PKCiota at 2 uM

[21] = AUC in Sprague-Dawley rat at 4.8 mg/kg, iv; type: ADME, organism-based; design: dose 4.8 mg/kg, route intravenous; conditions: plasma
[22] = biological target: Tyrosine-protein kinase Fyn (Homo sapiens) (UniProt P06241); assay: Inhibition of Fyn at 2 uM
[23] = biological target: Inhibitor of nuclear factor kappa-B kinase subunit beta (Homo sapiens) (UniProt O14920); conditions: 2 uM
Description: Inhibition of IKKb at 2 uM

[24] = Clearance in beagle dog at 13.8 mg/kg, iv; type: ADME, organism-based, Canis lupus familiaris; design: dose 13.8 mg/kg, route intravenous; conditions: in vivo
Cytochrome P450 2C19 = Cytochrome P450 2C19 (Homo sapiens, UniProt P33261); assay: Inhibition of human CYP2C19; type: ADME
[25] = biological target: Dual specificity mitogen-activated protein kinase kinase 7 (Homo sapiens) (UniProt O14733); conditions: 2 uM
Description: Inhibition of MKK7 at 2 uM

[26] = biological target: Casein kinase I isoform alpha (Homo sapiens) (UniProt P48729); assay: Inhibition of CK1 at 2 uM
[27] = biological target: Protein kinase C theta type (Homo sapiens) (UniProt Q04759); conditions: 2 uM
Description: Inhibition of PKCtheta at 2 uM

Mus musculus = assay: Antiarthritic activity in complete Freund's adjuvant-immunized DBA/1J mouse assessed as inhibition of type 2 collagen-induced bone and cartilage erosion at […], po bid measured on day 20; type: functional; conditions: 480 h, dose 2.5 mg/kg
[28] = biological target: Dual specificity mitogen-activated protein kinase kinase 2 (Homo sapiens) (UniProt P36507); assay: Inhibition of MEK2 at 2 uM
Sequence of Dual specificity mitogen-activated protein kinase kinase 2 (Homo sapiens) (P36507 whole entry): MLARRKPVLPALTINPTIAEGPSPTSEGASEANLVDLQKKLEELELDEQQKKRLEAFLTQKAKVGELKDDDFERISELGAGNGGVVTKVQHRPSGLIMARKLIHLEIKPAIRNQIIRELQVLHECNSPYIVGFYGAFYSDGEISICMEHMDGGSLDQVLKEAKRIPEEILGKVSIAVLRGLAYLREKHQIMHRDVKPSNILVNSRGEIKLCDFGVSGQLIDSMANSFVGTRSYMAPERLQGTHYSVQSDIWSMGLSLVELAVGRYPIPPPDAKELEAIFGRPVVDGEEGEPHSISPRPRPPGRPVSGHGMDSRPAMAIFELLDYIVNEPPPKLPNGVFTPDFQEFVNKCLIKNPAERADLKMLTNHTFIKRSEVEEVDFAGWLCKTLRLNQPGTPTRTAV

Sequence of Serine/threonine-protein kinase PAK 2 (Homo sapiens) (Q13177 whole entry): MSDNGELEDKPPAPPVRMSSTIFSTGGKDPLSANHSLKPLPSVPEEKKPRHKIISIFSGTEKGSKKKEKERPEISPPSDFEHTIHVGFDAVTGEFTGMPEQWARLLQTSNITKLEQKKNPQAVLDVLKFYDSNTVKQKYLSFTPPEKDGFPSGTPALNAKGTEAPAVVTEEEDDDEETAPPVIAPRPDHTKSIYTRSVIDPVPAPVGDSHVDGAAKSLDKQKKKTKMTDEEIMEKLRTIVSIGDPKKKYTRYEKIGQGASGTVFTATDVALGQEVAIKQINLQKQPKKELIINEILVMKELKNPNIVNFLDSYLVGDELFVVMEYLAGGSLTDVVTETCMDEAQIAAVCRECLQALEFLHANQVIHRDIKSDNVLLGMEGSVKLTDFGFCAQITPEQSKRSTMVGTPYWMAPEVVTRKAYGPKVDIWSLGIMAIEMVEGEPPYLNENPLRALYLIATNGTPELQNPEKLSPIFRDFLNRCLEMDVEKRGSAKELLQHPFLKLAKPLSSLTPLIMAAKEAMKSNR
Sequence of Dual specificity mitogen-activated protein kinase kinase 6 (Homo sapiens) (P52564 whole entry): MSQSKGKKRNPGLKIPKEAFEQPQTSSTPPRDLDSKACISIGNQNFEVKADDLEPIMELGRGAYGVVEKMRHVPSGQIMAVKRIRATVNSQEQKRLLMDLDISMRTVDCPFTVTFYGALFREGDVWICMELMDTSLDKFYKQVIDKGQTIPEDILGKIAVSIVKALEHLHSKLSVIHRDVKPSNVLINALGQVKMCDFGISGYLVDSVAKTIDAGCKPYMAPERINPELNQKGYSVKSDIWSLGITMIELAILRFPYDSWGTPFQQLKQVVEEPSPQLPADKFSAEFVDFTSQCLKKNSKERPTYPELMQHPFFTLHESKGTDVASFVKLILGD
Sequence of Protein kinase C theta type (Homo sapiens) (Q04759 whole entry, looked up): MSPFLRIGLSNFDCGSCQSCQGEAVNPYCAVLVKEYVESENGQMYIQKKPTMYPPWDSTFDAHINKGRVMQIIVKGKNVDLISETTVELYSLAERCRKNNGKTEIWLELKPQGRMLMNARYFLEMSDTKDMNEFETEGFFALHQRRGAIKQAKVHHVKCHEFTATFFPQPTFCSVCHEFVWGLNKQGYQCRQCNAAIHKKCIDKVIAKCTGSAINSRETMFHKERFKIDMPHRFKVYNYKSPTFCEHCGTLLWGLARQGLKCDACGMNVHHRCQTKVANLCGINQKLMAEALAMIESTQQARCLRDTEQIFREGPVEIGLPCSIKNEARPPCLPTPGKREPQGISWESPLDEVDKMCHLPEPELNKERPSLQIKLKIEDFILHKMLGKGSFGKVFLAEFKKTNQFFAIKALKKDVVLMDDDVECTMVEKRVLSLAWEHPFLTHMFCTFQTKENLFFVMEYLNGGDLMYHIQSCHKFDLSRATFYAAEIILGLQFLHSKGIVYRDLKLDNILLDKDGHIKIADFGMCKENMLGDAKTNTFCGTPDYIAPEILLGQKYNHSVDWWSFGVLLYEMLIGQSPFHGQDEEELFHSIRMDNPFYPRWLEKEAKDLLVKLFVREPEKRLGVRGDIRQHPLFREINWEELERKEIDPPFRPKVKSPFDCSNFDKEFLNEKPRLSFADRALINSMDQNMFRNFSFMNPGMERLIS
Sequence of Protein kinase C iota type (Homo sapiens) (P41743 whole entry): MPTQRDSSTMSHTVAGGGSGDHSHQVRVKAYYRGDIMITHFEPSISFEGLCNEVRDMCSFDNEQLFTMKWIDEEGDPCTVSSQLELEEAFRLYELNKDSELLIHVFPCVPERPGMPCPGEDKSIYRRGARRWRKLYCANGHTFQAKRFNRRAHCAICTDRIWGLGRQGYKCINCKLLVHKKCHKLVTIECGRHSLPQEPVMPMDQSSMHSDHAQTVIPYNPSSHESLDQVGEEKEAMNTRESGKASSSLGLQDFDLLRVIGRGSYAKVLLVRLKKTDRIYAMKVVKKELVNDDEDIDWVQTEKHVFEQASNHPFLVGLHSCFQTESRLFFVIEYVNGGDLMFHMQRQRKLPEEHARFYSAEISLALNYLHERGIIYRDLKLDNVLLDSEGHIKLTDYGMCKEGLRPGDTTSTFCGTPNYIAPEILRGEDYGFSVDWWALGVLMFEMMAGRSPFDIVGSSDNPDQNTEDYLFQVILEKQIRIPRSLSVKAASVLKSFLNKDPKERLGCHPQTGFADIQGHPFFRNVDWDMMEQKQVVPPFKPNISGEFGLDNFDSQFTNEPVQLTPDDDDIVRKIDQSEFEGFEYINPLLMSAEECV
Sequence of Mitogen-activated protein kinase 8 (Homo sapiens) (P45983 whole entry): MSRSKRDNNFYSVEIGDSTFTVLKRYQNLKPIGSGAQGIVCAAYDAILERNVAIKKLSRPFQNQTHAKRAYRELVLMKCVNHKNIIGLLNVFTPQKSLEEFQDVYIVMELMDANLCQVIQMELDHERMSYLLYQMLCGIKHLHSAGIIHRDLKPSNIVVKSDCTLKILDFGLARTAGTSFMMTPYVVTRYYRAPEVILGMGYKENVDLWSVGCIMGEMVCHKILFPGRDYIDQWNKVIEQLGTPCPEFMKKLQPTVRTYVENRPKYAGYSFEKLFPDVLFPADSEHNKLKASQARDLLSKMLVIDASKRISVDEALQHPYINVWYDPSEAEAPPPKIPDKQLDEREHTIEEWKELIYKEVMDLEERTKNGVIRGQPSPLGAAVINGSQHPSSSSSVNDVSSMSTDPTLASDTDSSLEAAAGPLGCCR
Sequence of Mitogen-activated protein kinase 3 (Homo sapiens) (P27361 whole entry): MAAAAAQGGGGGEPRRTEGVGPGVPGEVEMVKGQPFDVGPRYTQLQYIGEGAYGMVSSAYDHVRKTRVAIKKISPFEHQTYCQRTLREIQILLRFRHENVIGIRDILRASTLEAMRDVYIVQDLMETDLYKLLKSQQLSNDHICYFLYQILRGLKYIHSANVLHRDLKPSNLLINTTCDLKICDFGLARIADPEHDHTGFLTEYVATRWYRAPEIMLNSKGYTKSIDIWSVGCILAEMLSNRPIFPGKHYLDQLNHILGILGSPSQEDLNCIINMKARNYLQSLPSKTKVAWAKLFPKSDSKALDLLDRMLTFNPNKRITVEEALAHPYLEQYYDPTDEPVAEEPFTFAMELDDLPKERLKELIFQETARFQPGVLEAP
Sequence of Serine/threonine-protein kinase 3 (Homo sapiens) (Q13188 whole entry): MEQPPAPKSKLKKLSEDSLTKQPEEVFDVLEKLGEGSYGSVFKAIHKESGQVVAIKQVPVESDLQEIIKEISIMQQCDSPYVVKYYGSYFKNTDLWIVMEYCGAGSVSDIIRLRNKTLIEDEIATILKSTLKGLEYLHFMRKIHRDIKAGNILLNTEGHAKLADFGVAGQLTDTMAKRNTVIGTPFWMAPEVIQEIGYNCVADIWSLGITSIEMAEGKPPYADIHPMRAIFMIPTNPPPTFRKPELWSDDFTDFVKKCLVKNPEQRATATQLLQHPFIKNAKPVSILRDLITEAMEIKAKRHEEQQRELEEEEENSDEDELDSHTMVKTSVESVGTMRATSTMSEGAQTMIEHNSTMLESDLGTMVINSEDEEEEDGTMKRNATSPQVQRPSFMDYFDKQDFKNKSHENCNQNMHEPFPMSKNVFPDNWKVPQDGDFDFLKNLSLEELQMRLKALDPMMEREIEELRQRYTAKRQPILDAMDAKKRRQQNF
Sequence of Tyrosine-protein kinase Fyn (Homo sapiens) (P06241 2-537 limits assumed): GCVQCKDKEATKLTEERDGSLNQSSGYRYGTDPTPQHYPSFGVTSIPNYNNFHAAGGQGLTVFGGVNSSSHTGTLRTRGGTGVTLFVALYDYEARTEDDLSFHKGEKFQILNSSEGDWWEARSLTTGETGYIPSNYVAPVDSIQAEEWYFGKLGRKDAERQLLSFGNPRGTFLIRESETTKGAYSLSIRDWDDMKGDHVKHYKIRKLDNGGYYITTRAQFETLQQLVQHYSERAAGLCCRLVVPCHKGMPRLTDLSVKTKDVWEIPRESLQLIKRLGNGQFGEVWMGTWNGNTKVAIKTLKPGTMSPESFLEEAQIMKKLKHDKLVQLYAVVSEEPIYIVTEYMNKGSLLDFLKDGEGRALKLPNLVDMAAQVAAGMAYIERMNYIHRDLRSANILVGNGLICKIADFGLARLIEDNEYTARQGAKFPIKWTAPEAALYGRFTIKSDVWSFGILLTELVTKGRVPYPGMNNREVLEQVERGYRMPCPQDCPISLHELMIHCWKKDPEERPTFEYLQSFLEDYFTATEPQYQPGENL
Sequence of Casein kinase I isoform alpha (Homo sapiens) (P48729 2-337 limits assumed): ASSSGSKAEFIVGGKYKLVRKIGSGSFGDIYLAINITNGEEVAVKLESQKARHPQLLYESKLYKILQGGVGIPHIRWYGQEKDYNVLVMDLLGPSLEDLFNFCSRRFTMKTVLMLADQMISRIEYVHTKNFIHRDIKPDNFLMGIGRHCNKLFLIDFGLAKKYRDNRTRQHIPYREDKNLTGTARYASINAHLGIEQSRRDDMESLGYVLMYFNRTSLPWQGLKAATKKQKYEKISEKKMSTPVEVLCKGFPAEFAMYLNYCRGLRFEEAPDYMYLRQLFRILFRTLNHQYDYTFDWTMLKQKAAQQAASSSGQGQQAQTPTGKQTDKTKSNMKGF

O=c1ncn2nc(Sc3ccc(F)cc3F)ccc2c1-c1c(Cl)cccc1Cl [NEFLAMAPIMOD]
fraction unbound [1]: 0.08 | inhibition [2]: 0% | IC50 [3]: > 5 µM | inhibition [4]: 0% | inhibition [5]: 10% | inhibition [6]: 16% | half-life [7]: 2.6 h | inhibition [8]: 0% | IC50 [9]: > 5 µM | Cmax [10]: 890 ng/mL | bioavailability [11]: 87% | inhibition [12]: 5% | inhibition [13]: 7% | inhibition [14]: 8% | inhibition [15]: 95% | inhibition [16]: 0% | half-life [17]: 1.9 h | inhibition [18]: 5% | AUC [19]: 1540 ng·h/mL | inhibition [20]: 0% | AUC [21]: 1260 ng·h/mL | inhibition [22]: 6% | inhibition [23]: 0% | clearance [24]: 39 mL/min/kg | IC50 (Cytochrome P450 2C19): > 40 µM | inhibition [25]: 0% | inhibition [26]: 1% | inhibition [27]: 0% | inhibition in vivo at […] (Mus musculus): 35% | inhibition [28]: 14%
